Laboratory results: patent publication US20160251341A1, “SUBSTITUTED TRIAZOLE COMPOUNDS AS SERINE PROTEASE INHIBITORS” (Verseon Corporation, priority 2015, published 2016)
pIC50: −log10 of the molar value. Counter-ions that a name gives are not always drawn.

These compounds were tested against T1, Human thrombin (Homo sapiens, UniProt P00734) (assay: Thrombin protease inhibition assay (chromogenic substrate S-2238)). Settings: 3 nM human thrombin, 125 μM S-2238, 10 min pre-incubation, RT.
T1 construct: purchased Haematologic Technologies Inc
Type: biochemical
Description: The thrombin activity reported herein (e.g., Table A) was obtained as follows. Human thrombin was obtained from Haematologic Technologies Inc. The chromogenic substrate S-2238 was obtained from DiaPharma. Thrombin was assayed in buffer containing 0.05 M Tris (pH 7.4), 0.015 M NaCl and 0.01% PEG-8000. The final concentration of enzyme used was 3 nM thrombin. The final concentration of substrate used was 125 μM S-2238 for thrombin. All assays were performed in 96-well microtiter plates at room temperature (RT). The enzyme and inhibitor were pre-incubated for 10 minutes then substrate was added and read at 405 nm in a SpectraMax Plus Spectrophotometer (Molecular Devices). Inhibitor IC50 values were determined by adding test compound as ten point, three-fold serial dilutions in buffer solution, as known in the art. The plate was read at 10 minutes after substrate addition. The IC50 was calculated by plotting the percent (%) inhibition against compound concentration and fitting the data to a constrained four parameter sigmoidal curve, as known in the art.

Row | pIC50 | Structure (SMILES)
1 | ≥ 7.00 | O=C(c1ccccc1)n1nc(C2CCNCC2)nc1NCc1ccc(Cl)s1 [Entry 15, 1-benzoyl-N-[(5-chlorothiophen-2-yl)methyl]-3-(piperidin-4-yl)-1H-1,2,4-triazol-5-amine hydrochloride]
2 | ≤ 4.00 | COc1ccccc1C(=O)n1nc(C2=C(O)CCCC2)nc1NCc1ccccc1 [Entry 16, 2-[5-(benzylamino)-1-(2-methoxybenzoyl)-1H-1,2,4-triazol-3-yl]cyclohex-1-en-1-ol]
3 | ≤ 4.00 | OC1=C(c2n[nH]c(NCc3ccccc3)n2)CCCC1 [Entry 17, 2-[5-(benzylamino)-1H-1,2,4-triazol-3-yl]cyclohex-1-en-1-ol]
4 | ≤ 4.00 | COC1CCCCC1c1n[nH]c(N)n1 (stereo not drawn) [Entry 18, 3-(2-methoxycyclohexyl)-1H-1,2,4-triazol-5-amine]
5 | ≥ 7.00 | COc1ccccc1C(=O)n1nc(C2CN(S(=O)(=O)N(C)C)C2)nc1NCc1ccc(Cl)s1 [Entry 19, 3-(5-[(5-chlorothiophen-2-yl)methyl]amino-1-(2-methoxybenzoyl)-1H-1,2,4-triazol-3-yl)-N,N-dimethylazetidine-1-sulfonamide]
6 | ≤ 4.00 | O=C(c1ccccc1)n1nc(C2CNC2)nc1NCc1ccc(Cl)s1 [Entry 20, 3-(azetidin-3-yl)-1-benzoyl-N-[(5-chlorothiophen-2-yl)methyl]-1H-1,2,4-triazol-5-amine]
7 | ≥ 7.00 | O=C(c1cccc2c1OCCO2)n1nc(C2CNC2)nc1NCc1ccc(Cl)s1 [Entry 21, 3-(azetidin-3-yl)-N-[(5-chlorothiophen-2-yl)methyl]-1-(2,3-dihydro-1,4-benzodioxine-5-carbonyl)-1H-1,2,4-triazol-5-amine; trifluoroacetic acid]
8 | 6.00 to 7.00 | O=C(C1CCCCC1)n1nc(C2CNC2)nc1NCc1ccc(Cl)s1 [Entry 22, 3-(azetidin-3-yl)-N-[(5-chlorothiophen-2-yl)methyl]-1-cyclohexanecarbonyl-1H-1,2,4-triazol-5-amine; trifluoroacetic acid]
9 | ≤ 4.00 | O=C(C1CCCC1)n1nc(C2CNC2)nc1NCc1ccc(Cl)s1 [Entry 23, 3-(azetidin-3-yl)-N-[(5-chlorothiophen-2-yl)methyl]-1-cyclopentanecarbonyl-1H-1,2,4-triazol-5-amine]
10 | ≤ 4.00 | Nc1nc(C2CCOCC2)n[nH]1 [Entry 24, 3-(oxan-4-yl)-1H-1,2,4-triazol-5-amine]
11 | ≤ 4.00 | Nc1nc(C2CCCO2)n[nH]1 (stereo not drawn) [Entry 25, 3-(oxolan-2-yl)-1H-1,2,4-triazol-5-amine]
12 | ≤ 4.00 | Nc1nc(C2CCOC2)n[nH]1 (stereo not drawn) [Entry 26, 3-(oxolan-3-yl)-1H-1,2,4-triazol-5-amine]
13 | ≥ 7.00 | COc1ccccc1C(=O)n1nc(C2CN(S(=O)(=O)c3ccccc3)C2)nc1NCc1ccc(Cl)s1 [Entry 27, 3-[1-(benzenesulfonyl)azetidin-3-yl]-N-[(5-chlorothiophen-2-yl)methyl]-1-(2-methoxybenzoyl)-1H-1,2,4-triazol-5-amine]
14 | ≥ 7.00 | COc1ccccc1C(=O)n1nc(C2CCN(S(=O)(=O)c3ccccc3)CC2)nc1NCc1ccc(Cl)s1 [Entry 28, 3-[1-(benzenesulfonyl)piperidin-4-yl]-N-[(5-chlorothiophen-2-yl)methyl]-1-(2-methoxybenzoyl)-1H-1,2,4-triazol-5-amine]
15 | ≤ 4.00 | Nc1nc(C2=C(OCc3ccc(Cl)s3)CCCC2)n[nH]1 [Entry 29, 3-2-[(5-chlorothiophen-2-yl)methoxy]cyclohex-1-en-1-yl-1H-1,2,4-triazol-5-amine]
16 | ≥ 7.00 | COc1ccccc1C(=O)n1nc(C2CCN(C(=O)N(C)C)CC2)nc1NCc1ccc(Cl)s1 [Entry 30, 4-(5-[(5-chlorothiophen-2-yl)methyl]amino-1-(2-methoxybenzoyl)-1H-1,2,4-triazol-3-yl)-N,N-dimethylpiperidine-1-carboxamide]
17 | ≥ 7.00 | COc1ccccc1C(=O)n1nc(C2CCN(C(N)=O)CC2)nc1NCc1ccc(Cl)s1 [Entry 31, 4-(5-[(5-chlorothiophen-2-yl)methyl]amino-1-(2-methoxybenzoyl)-1H-1,2,4-triazol-3-yl)piperidine-1-carboxamide]
18 | ≥ 7.00 | O=C(c1cccc2c1OCCO2)n1nc(C2CCOCC2)nc1NCc1ccc(Cl)s1 [Entry 32, N-[(5-chlorothiophen-2-yl)methyl]-1-(2,3-dihydro-1,4-benzodioxine-5-carbonyl)-3-(oxan-4-yl)-1H-1,2,4-triazol-5-amine]

Row | pIC50 | Structure (SMILES)
19 | ≥ 7.00 | O=C(c1cccc2c1OCCO2)n1nc(C2CCCO2)nc1NCc1ccc(Cl)s1 (stereo not drawn) [Entry 33, N-[(5-chlorothiophen-2-yl)methyl]-1-(2,3-dihydro-1,4-benzodioxine-5-carbonyl)-3-(oxolan-2-yl)-1H-1,2,4-triazol-5-amine]
20 | ≥ 7.00 | O=C(c1cccc2c1OCCO2)n1nc(C2CCOC2)nc1NCc1ccc(Cl)s1 (stereo not drawn) [Entry 34, N-[(5-chlorothiophen-2-yl)methyl]-1-(2,3-dihydro-1,4-benzodioxine-5-carbonyl)-3-(oxolan-3-yl)-1H-1,2,4-triazol-5-amine]
21 | ≥ 7.00 | O=C(c1cccc2c1OCCO2)n1nc(C2CCNCC2)nc1NCc1ccc(Cl)s1 [Entry 35, N-[(5-chlorothiophen-2-yl)methyl]-1-(2,3-dihydro-1,4-benzodioxine-5-carbonyl)-3-(piperidin-4-yl)-1H-1,2,4-triazol-5-amine hydrochloride]
22 | ≥ 7.00 | COc1ccc(C(=O)n2nc(C3CCOCC3)nc2NCc2ccc(Cl)s2)c(OC)c1 [Entry 36, N-[(5-chlorothiophen-2-yl)methyl]-1-(2,4-dimethoxybenzoyl)-3-(oxan-4-yl)-1H-1,2,4-triazol-5-amine]
23 | ≥ 7.00 | COc1ccc(C(=O)n2nc(C3CCCO3)nc2NCc2ccc(Cl)s2)c(OC)c1 (stereo not drawn) [Entry 37, N-[(5-chlorothiophen-2-yl)methyl]-1-(2,4-dimethoxybenzoyl)-3-(oxolan-2-yl)-1H-1,2,4-triazol-5-amine]
24 | ≥ 7.00 | COc1ccc(C(=O)n2nc(C3CCOC3)nc2NCc2ccc(Cl)s2)c(OC)c1 (stereo not drawn) [Entry 38, N-[(5-chlorothiophen-2-yl)methyl]-1-(2,4-dimethoxybenzoyl)-3-(oxolan-3-yl)-1H-1,2,4-triazol-5-amine]
25 | ≥ 7.00 | COc1ccccc1C(=O)n1nc(C2CCCCC2OC)nc1NCc1ccc(Cl)s1 (stereo not drawn) [Entry 39, N-[(5-chlorothiophen-2-yl)methyl]-1-(2-methoxybenzoyl)-3-(2-methoxycyclohexyl)-1H-1,2,4-triazol-5-amine]
26 | ≥ 7.00 | COc1ccccc1C(=O)n1nc(C2CCOCC2)nc1NCc1ccc(Cl)s1 [Entry 40, N-[(5-chlorothiophen-2-yl)methyl]-1-(2-methoxybenzoyl)-3-(oxan-4-yl)-1H-1,2,4-triazol-5-amine]
27 | ≥ 7.00 | COc1ccccc1C(=O)n1nc(C2CCCO2)nc1NCc1ccc(Cl)s1 (stereo not drawn) [Entry 41, N-[(5-chlorothiophen-2-yl)methyl]-1-(2-methoxybenzoyl)-3-(oxolan-2-yl)-1H-1,2,4-triazol-5-amine]
28 | ≥ 7.00 | COc1ccccc1C(=O)n1nc(C2CCOC2)nc1NCc1ccc(Cl)s1 (stereo not drawn) [Entry 42, N-[(5-chlorothiophen-2-yl)methyl]-1-(2-methoxybenzoyl)-3-(oxolan-3-yl)-1H-1,2,4-triazol-5-amine]
29 | ≥ 7.00 | COc1ccccc1C(=O)n1nc(C2CCNCC2)nc1NCc1ccc(Cl)s1 [Entry 43, N-[(5-chlorothiophen-2-yl)methyl]-1-(2-methoxybenzoyl)-3-(piperidin-4-yl)-1H-1,2,4-triazol-5-amine]
30 | ≥ 7.00 | COc1ccccc1C(=O)n1nc(C2CCN(C(=O)N3CCCCC3)CC2)nc1NCc1ccc(Cl)s1 [Entry 44, N-[(5-chlorothiophen-2-yl)methyl]-1-(2-methoxybenzoyl)-3-[1-(piperidine-1-carbonyl)piperidin-4-yl]-1H-1,2,4-triazol-5-amine]
31 | ≥ 7.00 | COc1ccccc1C(=O)n1nc(C2CN(S(=O)(=O)N3CCCCC3)C2)nc1NCc1ccc(Cl)s1 [Entry 45, N-[(5-chlorothiophen-2-yl)methyl]-1-(2-methoxybenzoyl)-3-[1-(piperidine-1-sulfonyl)azetidin-3-yl]-1H-1,2,4-triazol-5-amine]
32 | ≥ 7.00 | COc1ccccc1C(=O)n1nc(C2CN(S(=O)(=O)C(C)C)C2)nc1NCc1ccc(Cl)s1 [Entry 46, N-[(5-chlorothiophen-2-yl)methyl]-1-(2-methoxybenzoyl)-3-[1-(propane-2-sulfonyl)azetidin-3-yl]-1H-1,2,4-triazol-5-amine]
33 | ≥ 7.00 | COc1ccccc1C(=O)n1nc(C2CCN(S(=O)(=O)C(C)C)CC2)nc1NCc1ccc(Cl)s1 [Entry 47, N-[(5-chlorothiophen-2-yl)methyl]-1-(2-methoxybenzoyl)-3-[1-(propane-2-sulfonyl)piperidin-4-yl]-1H-1,2,4-triazol-5-amine]
34 | ≥ 7.00 | COc1ccccc1C(=O)n1nc(C2CCN(C(=O)N3CCCC3)CC2)nc1NCc1ccc(Cl)s1 [Entry 48, N-[(5-chlorothiophen-2-yl)methyl]-1-(2-methoxybenzoyl)-3-[1-(pyrrolidine-1-carbonyl)piperidin-4-yl]-1H-1,2,4-triazol-5-amine]
35 | ≥ 7.00 | COc1ccccc1C(=O)n1nc(C2CN(S(=O)(=O)N3CCCC3)C2)nc1NCc1ccc(Cl)s1 [Entry 49, N-[(5-chlorothiophen-2-yl)methyl]-1-(2-methoxybenzoyl)-3-[1-(pyrrolidine-1-sulfonyl)azetidin-3-yl]-1H-1,2,4-triazol-5-amine]
36 | ≥ 7.00 | Cc1ccccc1C(=O)n1nc(C2CCOCC2)nc1NCc1ccc(Cl)s1 [Entry 50, N-[(5-chlorothiophen-2-yl)methyl]-1-(2-methylbenzoyl)-3-(oxan-4-yl)-1H-1,2,4-triazol-5-amine]
